From patent EP0238905B1, “4-(2-pyrimidinyl)-1-piperazinyl heterocyclic carbonyl derivatives” (MERRELL DOW PHARMACEUTICALS INC., priority 1986, dated 1987)

Biological target: T1, 5-HT1A recognition sites (Rattus norvegicus, UniProt P19327)
T1 construct: Tissues from 4-8 rats are pooled and homogenized in 70 vol Tris-HCl buffer; from tissue; host or cells: Sprague-Dawley rat frontal cortex membrane homogenate
T1 sequence (P19327 1-422): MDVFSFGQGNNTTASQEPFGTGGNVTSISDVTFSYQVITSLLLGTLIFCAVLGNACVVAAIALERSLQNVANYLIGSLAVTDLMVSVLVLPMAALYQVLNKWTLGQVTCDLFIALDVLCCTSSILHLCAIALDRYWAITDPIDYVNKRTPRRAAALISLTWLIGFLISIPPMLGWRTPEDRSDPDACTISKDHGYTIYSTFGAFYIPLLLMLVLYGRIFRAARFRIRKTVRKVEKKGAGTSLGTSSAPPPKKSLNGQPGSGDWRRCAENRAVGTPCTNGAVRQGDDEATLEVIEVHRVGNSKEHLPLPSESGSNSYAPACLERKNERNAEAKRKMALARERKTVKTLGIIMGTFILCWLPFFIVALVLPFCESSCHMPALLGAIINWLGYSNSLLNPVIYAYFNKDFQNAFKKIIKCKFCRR
Assay: In vitro 5-HT1A radioligand binding ([³H]-8-OH-DPAT)
Set-up: species or system Sprague-Dawley rat
Conditions: rat frontal cortex homogenate; radioligand [³H]-8-OH-DPAT; 37°C for 15 min; results expressed as pIC₅₀; read-out: 5-HT1A Binding Affinity Rat Brain cortex (converted)
Procedure: Radioligand binding studies of the 5-HT1A recognition sites are conducted in the following manner.
Radioactivity is measured following extraction into Aquasol-Z (NEN) at an efficiency of 45-50%.

CC1(C)CC(=O)OC(=NCCCCN2CCN(c3ncccn3)CC2)N1 [Compound B, 2-[4-[4-(2-pyrimidinyl)-1-piperazinyl]butylimino]-tetrahydro-4,4-dimethyl-6H-1,3-oxazine-6-one]
IC50: 479 nM
